Data published in the SangsterLogP compilation.

**Q.** For `CC(O)COc1ccccc1` (centres undefined), which logP is on record?
**A.** 1.5

**Q.** For `CCCOC(C)CO` (centres undefined), which logP is on record?
**A.** 0.62

**Q.** Which logP does the source give for `COCCCO` here?
**A.** -0.44

**Q.** For `CC(CO)Oc1ccccc1` (centres undefined), which logP is on record?
**A.** 1.5

**Q.** Which logP does the source give for `CCCOCC(C)O` (centres undefined) here?
**A.** 0.62

**Q.** For `COCC(C)OCC(C)OC(C)=O` (centres undefined), which logP is on record?
**A.** 0.8

**Q.** Which logP does the source give for `COC(C)COC(C)COC(C)=O` (centres undefined) here?
**A.** 0.8

**Q.** With `CCCOC(C)COC(C)CO` (centres undefined) as the molecule, how does the logP read?
**A.** 0.99

**Q.** For `CCCCOCC(C)OCC(C)O` (centres undefined), which logP is on record?
**A.** 1.52

**Q.** With `COC(C)COC(C)COC(C)CO` (centres undefined) as the molecule, how does the logP read?
**A.** 0.31

**Q.** Which logP does the source give for `CCCCOCC(C)OCC(C)OCC(C)O` (centres undefined) here?
**A.** 1.9

**Q.** For `CCCCOC(C)CO` (centres undefined), which logP is on record?
**A.** 1.15

**Q.** Which logP does the source give for `COC(C)COC(C)CO` (centres undefined) here?
**A.** -0.06

**Q.** Which logP does the source give for `COCC(C)O` (centres undefined) here?
**A.** -0.44

**Q.** With `COC(C)COC(C)=O` (centres undefined) as the molecule, how does the logP read?
**A.** 0.43

**Q.** Which logP does the source give for `CCCCOC(C)COC(C)COC(C)CO` (centres undefined) here?
**A.** 1.9

**Q.** For `COCC(C)OCC(C)OCC(C)O` (centres undefined), which logP is on record?
**A.** 0.31

**Q.** For `CCCCOCC(C)O` (centres undefined), which logP is on record?
**A.** 1.15

**Q.** With `CCCOCC(C)OCC(C)O` (centres undefined) as the molecule, how does the logP read?
**A.** 0.99
